# Source: patent US5736545A, “Azolyl piperazinyl phenyl oxazolidinone antimicrobials” (Pharmacia & Upjohn Company, priority 1997, dated 1998)
# Where two headings read alike, the source gives them in different places.
# Assays:
# S. aureus UC ® 9213 = experiment: In vitro MIC by agar dilution (NCCLS), Gram-positive bacteria: S. aureus; assay type: cell-based, Staphylococcus aureus; conditions: for MIC: Staphylococcus aureus
# Description: The oxazolidinone antibacterial agents of this invention have useful activity against a variety of organisms. The in vitro activity of compounds of this invention can be assessed by standard testing procedures such as the determination of minimum inhibitory concentration (MIC) by agar dilution as described in "Methods for Dilution Antimicrobial Susceptibility Tests for Bacteria That Grow Aerobically" (MFT) published January 1983 by the National Committee for Clinical Laboratory Standards, 771 East Lancaster Avenue, Villanova, Pa. 19084, USA. The activity of selected compounds of this invention against Staphylococcus aureus and Streptococcus pneumoniae are shown in Table 1.
# ^a Minimum inhibitory concentration: lowest concentration of drug
# (μg/mL) that inhibits visible growth of the organism.
# E. Faecalis UC ® 9217 = experiment: In vitro MIC by agar dilution (NCCLS), Gram-positive bacteria: E. faecalis; assay type: cell-based; conditions: for MIC: Enterococcus faecalis
# [1] = UC9213, S. aureus UC 9213, agar dilution, read-out: MIC (minimum inhibitory concentration: lowest concentration of drug that inhibits visible growth of the organism)
# [2] = UC9217, E. Faecalis UC 9217, agar dilution, read-out: MIC (minimum inhibitory concentration: lowest concentration of drug that inhibits visible growth of the organism)
Molecule,MIC (S. aureus UC ® 9213; [1]) [µg/mL],MIC (E. Faecalis UC ® 9217; [2]) [µg/mL],also measured
"CC(=O)NC[C@H]1CN(c2ccc(N3CCN(c4nc5cc([N+](=O)[O-])ccc5o4)CC3)c(F)c2)C(=O)O1 [Example 4, (S)--N--[[3-[3-Fluoro-4-[4-(5-nitrobenzoxazol-2-yl)-1-piperazinyl]phenyl]-2-oxo-5-oxazolidinyl]methyl]acetamide]",1,1,–
"CC(=O)NC[C@H]1CN(c2ccc(N3CCN(c4nnc(C(F)(F)F)s4)CC3)c(F)c2)C(=O)O1 [Example 20, (S)--N--[[3-[3-Fluoro-4-[4-(5-trifluoromethyl-1,3,4-thiadiazol-2-yl)-1-piperazinyl]phenyl]-2-oxo-5-oxazolidinyl]methyl]acetamide]",4,2,–
"CC(=O)NC[C@H]1CN(c2ccc(N3CCN(c4ncc([N+](=O)[O-])s4)CC3)c(F)c2)C(=O)O1 [Example 2, (S)--N--[[3-[3-Fluoro-4-[4-(5-nitrothiazol-2-yl)-1-piperazinyl]phenyl]-2-oxo-5-oxazolidinyl]methyl]acetamide]",2,2,–
"CC(=O)NC[C@H]1CN(c2ccc(N3CCN(c4nnc(C)o4)CC3)c(F)c2)C(=O)O1 [Example 27, (S)--N--[[3-[3-Fluoro-4-[4-(5-methyl-1,3,4-oxadiazol-2-yl)-1-piperazinyl]phenyl]-2-oxo-5-oxazolidinyl]methyl]acetamide]",4,4,–
"CN[C@H](CC(C)C)C(=O)N[C@H]1C(=O)N[C@@H](CC(N)=O)C(=O)N[C@H]2C(=O)N[C@H]3C(=O)N[C@H](C(=O)N[C@H](C(=O)O)c4cc(O)cc(O)c4-c4cc3ccc4O)[C@H](O)c3ccc(c(Cl)c3)Oc3cc2cc(c3O[C@@H]2O[C@H](CO)[C@@H](O)[C@H](O)[C@H]2O[C@H]2C[C@](C)(N)[C@H](O)[C@H](C)O2)Oc2ccc(cc2Cl)[C@H]1O [Vancomycin, reference compound]",–,–,"MIC (S. aureus UC ® 9213; UC9213, read-out: MIC (minimum inhibitory concentration: lowest concentration of drug that inhibits visible growth of the organism)): 1 µg/mL; MIC (E. Faecalis UC ® 9217; UC9217, read-out: MIC (minimum inhibitory concentration: lowest concentration of drug that inhibits visible growth of the organism)): 4 µg/mL"
"CC(=O)NC[C@H]1CN(c2ccc(N3CCN(c4nc(=O)n(-c5ccccc5)s4)CC3)c(F)c2)C(=O)O1 [Example 26, (S)--N--[[3-[3-Fluoro-4-[4-(2-phenyl-3-oxo-1,2,4-thiadiazol-5-yl)-1-piperazinyl]phenyl]-2-oxo-5-oxazolidinyl]methyl]acetamide]",8,4,–
"CC(=O)NC[C@H]1CN(c2ccc(N3CCN(c4nc5ccccc5o4)CC3)c(F)c2)C(=O)O1 [Example 3, (S)--N--[[3-[4-[4-(2-Benzoxazolyl)-1-piperazinyl]-3-fluorophenyl]-2-oxo-5-oxazolidinyl]methyl]acetamide]",2,2,–
CC(=O)NC[C@H]1CN(c2ccc(N3CCN(c4nnnn4-c4ccccc4)CC3)c(F)c2)C(=O)O1 [Example 13],4,4,–
"CC(=O)NC[C@H]1CN(c2ccc(N3CCN(C4=NCCO4)CC3)c(F)c2)C(=O)O1 [Example 12, (S)--N--[[3-[4-[4-(4,5-Dihydro-2-oxazolyl)-1-piperazinyl]-3-fluorophenyl]-2-oxo-5-oxazolidinyl]methyl]acetamide]",32,4,–
(S)--N--[[3-[4-[3-Fluoro-4-[(methyl-5-tetrazolyl)-1-piperazinyl]phenyl]-2-oxo-5-oxazolidinyl]methyl]acetamide [Example 14],–,–,"MIC (minimum inhibitory concentration: lowest concentration of drug that inhibits visible growth of the organism) (S. aureus UC ® 9213; S. aureus UC 9213, agar dilution): 4 µg/mL; MIC (minimum inhibitory concentration: lowest concentration of drug that inhibits visible growth of the organism) (E. Faecalis UC ® 9217; E. Faecalis UC 9217, agar dilution): 2 µg/mL"
"CC(=O)NC[C@H]1CN(c2ccc(N3CCN(c4nc5cccc(F)c5o4)CC3)c(F)c2)C(=O)O1 [Example 9, (S)--N--[[3-[3-Fluoro-4-[4-(7-fluorobenzoxazol-2-yl)-1-piperazinyl]phenyl]-2-oxo-5-oxazolidinyl]methyl]acetamide]",1,1,–
"CC(=O)NC[C@H]1CN(c2ccc(N3CCN(c4nc5ccccc5s4)CC3)c(F)c2)C(=O)O1 [Example 1, (S)--N--[[3-[4-[4-(2-Benzothiazolyl)-1-piperazinyl]-3-fluorophenyl]-2-oxo-5-oxazolidinyl]methyl]acetamide]",4,2,–
"CC(=O)NC[C@H]1CN(c2ccc(N3CCN(c4n[nH]c(=O)s4)CC3)c(F)c2)C(=O)O1 [Example 24, (S)--N--[[3-[3-Fluoro-4-[4-(5-oxo-1,3,4-thiadiazol-2-yl)-1-piperazinyl]phenyl]-2-oxo-5-oxazolidinyl]methyl]acetamide]",1,1,–
"CC(=O)NC[C@H]1CN(c2ccc(N3CCN(c4nc5ccc(F)cc5o4)CC3)c(F)c2)C(=O)O1 [Example 8, (S)--N--[[3-[3-Fluoro-4-[4-(6-fluorobenzoxazol-2-yl)-1-piperazinyl]phenyl]-2-oxo-5-oxazolidinyl]methyl]acetamide]",2,1,–
"CC(=O)NC[C@H]1CN(c2ccc(N3CCN(c4nncs4)CC3)c(F)c2)C(=O)O1 [Example 16, (S)--N--[[3-[3-Fluoro-4-[4-(1,3,4-thiadiazol-2-yl)-1-piperazinyl]phenyl]-2-oxo-5-oxazolidinyl]mehtyl]acetamide]",1,1,–
CC(=O)NC[C@H]1CN(c2ccc(N3CCN(c4nc(C)ns4)CC3)c(F)c2)C(=O)O1 [Example 25],2,1,–
CC(=O)NC[C@H]1CN(c2ccc(N3CCN(C4=NC(=O)CS4)CC3)c(F)c2)C(=O)O1 [Example 15],2,1,–
CC(=O)NC[C@H]1CN(c2ccc(N3CCN(c4nnc(N)s4)CC3)c(F)c2)C(=O)O1 [Example 18],2,2,–
"CC(=O)NC[C@H]1CN(c2ccc(N3CCN(C4=NCCS4)CC3)c(F)c2)C(=O)O1 [Example 11, (S)--N--[[3-[4-[4-(4,5-Dihydro-2-thiazolyl)-1-piperazinyl]-3-fluorophenyl]-2-oxo-5-oxazolidinyl]methyl]acetamide]",2,1,–
"CC(=O)NC[C@H]1CN(c2ccc(N3CCN(c4nc5cc(F)ccc5o4)CC3)c(F)c2)C(=O)O1 [Example 7, (S)--N--[[3-[3-Fluoro-4-[4-(5-fluorobenzoxazol-2-yl)-1-piperazinyl]phenyl]-2-oxo-5-oxazolidinyl]methyl]acetamide]",4,4,–
"CC(=O)NC[C@H]1CN(c2ccc(N3CCN(c4nccs4)CC3)c(F)c2)C(=O)O1 [Example 5, (S)--N--[[3-[3-Fluoro-4-[4-(2-thiazolyl)-1-piperazinyl]phenyl]-2-oxo-5-oxazolidinyl]methyl]acetamide]",2,1,–
"CCOC(=O)c1nnc(N2CCN(c3ccc(N4C[C@H](CNC(C)=O)OC4=O)cc3F)CC2)s1 [Example 19, (S)--N--[[3-[4-[4-(5-Ethoxycarbonyl-1,3,4-thiadiazol-2-yl)-3-fluoro-1-piperazinyl]phenyl]-2-oxo-5-oxazolidinyl]methyl]acetamide]",4,2,–
"CC(=O)NC[C@H]1CN(c2ccc(N3CCN(c4nc5ccc(F)c(F)c5o4)CC3)c(F)c2)C(=O)O1 [Example 10, (S)--N--[[3-[3-Fluoro-4-[4-(6,7-difluorobenzoxazol-2-yl)-1-piperazinyl]phenyl]-2-oxo-5-oxazolidinyl]methyl]acetamide]",2,2,–
"CC(=O)NC[C@H]1CN(c2ccc(N3CCN(c4nnc(C)s4)CC3)c(F)c2)C(=O)O1 [Example 17, (S)--N--[[3-[3-Fluoro-4-[4-(5-methyl-1,3,4-thiadiazol-2-yl)-1-piperazinyl]phenyl]-2-oxo-5-oxazolidinyl]methyl]acetamide]",0.5,1,–
"CC(=O)NC[C@H]1CN(c2ccc(N3CCNCC3)c(F)c2)C(=O)O1 [XLII, reference compound]",> 64,32,–
"CC(=O)NC[C@H]1CN(c2ccc(N3CCN(c4nc5ccc([N+](=O)[O-])cc5s4)CC3)c(F)c2)C(=O)O1 [Example 6, (S)--N--[[3-[3-Fluoro-4-[4-(6-nitrobenzothiazol-2-yl)-1-piperazinyl]phenyl]-2-oxo-5-oxazolidinyl]methyl]acetamide]",0.5,0.5,–
